Experimental data reported in ChEMBL document CHEMBL1255222, “Exploring the neuroleptic substituent in octoclothepin: potential ligands for positron emission tomography with subnanomolar affinity for α(1)-adrenoceptors” (J Med Chem, 2010).

How the values were obtained:
[1] = Apparent permeability across human Caco-2 cells; type: ADME, cell-based
physchem = conditions: octanol/water

| SMILES | Papp [1] | logD (physchem) |
| --- | --- | --- |
| CN1CCC(c2cn(-c3ccc(F)cc3)c3ccc(-c4cncnc4)cc23)CC1 | 13 ×10⁻⁶ cm/s | 1.9 |
| Cn1nnc(-c2ccc3c(c2)c(C2CCN(CCN4CCNC4=O)CC2)cn3-c2ccc(F)cc2)n1 | 12 ×10⁻⁶ cm/s | 3.06 |
| CC(=O)NCc1ccc2c(c1)C(N1CCN(C)CC1)Cc1ccccc1S2 (racemic) | 33 ×10⁻⁶ cm/s | 2.65 |
| CC(C)C(=O)NCc1ccc2c(c1)C(N1CCN(C)CC1)Cc1ccccc1S2 (racemic) | 57 ×10⁻⁶ cm/s | 3.1 |
| CCN1CCC[C@H]1CNC(=O)c1c(O)c(Cl)cc(Cl)c1OC [RACLOPRIDE] | 66 ×10⁻⁶ cm/s | – |
